Laboratory results published in patent US20180000085A1, “USE OF PICOLINAMIDE COMPOUNDS WITH FUNGICIDAL ACTIVITY” (DOW AGROSCIENCES LLC, priority 2014, published 2018).

Key:
Type in all cases: in vivo
Leptosphaeria nodorum = test: Wheat glume blotch (LEPTNO) disease control; settings: 100 ppm, 1 Day Protectant
Procedure: All fungicides were evaluated using the aforementioned method for their activity vs. all target diseases, unless stated otherwise. Wheat leaf blotch and brown rust activity were also evaluated using track spray applications, in which case the fungicides were formulated as EC formulations, containing 0.1% Trycol 5941 in the spray solutions. Wheat plants (variety Yuma) were grown from seed in a greenhouse in 50% mineral soil/50% soil-less Metro mix until the first leaf was fully emerged, with 7-10 seedlings per pot. These plants were inoculated with an aqueous spore suspension of Zymoseptoria tritici either prior to or after fungicide treatments. After inoculation the plants were kept in 100% relative humidity (one day in a dark dew chamber followed by two to three days in a lighted dew chamber at 20° C.) to permit spores to germinate and infect the leaf. The plants were then transferred to a greenhouse set at 20° C. for disease to develop. When disease symptoms were fully expressed on the 1st leaves of untreated plants, infection levels were assessed on a scale of 0 to 100 percent disease severity. Percent disease control was calculated using the ratio of disease severity on treated plants relative to untreated plants. Example C: Evaluation of Fungicidal Activity: Wheat Glume Blotch (Leptosphaeria nodorum; Bayer Code […]) Wheat plants (variety Yuma) were grown from seed in a greenhouse in 50% mineral soil/50% soil-less Metro mix until the first leaf was fully emerged, with 7-10 seedlings per pot. These plants were inoculated with an aqueous spore suspension of Leptosphaeria nodorum 24 hr after fungicide treatments. After inoculation the plants were kept in 100% relative humidity (one day in a dark dew chamber followed by two days in a lighted dew chamber at 20° C.) to permit spores to germinate and infect the leaf. The plants were then transferred to a greenhouse set at 20° C. for disease to develop. Fungicide formulation, application and disease assessment followed the procedures as described in the Example A.

Cercospora beticola = test: Leaf spot of sugar beets (CERCBE) disease control; settings: 100 ppm; 1 Day Protectant; sugar beet
Procedure: All fungicides were evaluated using the aforementioned method for their activity vs. all target diseases, unless stated otherwise. Wheat leaf blotch and brown rust activity were also evaluated using track spray applications, in which case the fungicides were formulated as EC formulations, containing 0.1% Trycol 5941 in the spray solutions. Wheat plants (variety Yuma) were grown from seed in a greenhouse in 50% mineral soil/50% soil-less Metro mix until the first leaf was fully emerged, with 7-10 seedlings per pot. These plants were inoculated with an aqueous spore suspension of Zymoseptoria tritici either prior to or after fungicide treatments. After inoculation the plants were kept in 100% relative humidity (one day in a dark dew chamber followed by two to three days in a lighted dew chamber at 20° C.) to permit spores to germinate and infect the leaf. The plants were then transferred to a greenhouse set at 20° C. for disease to develop. When disease symptoms were fully expressed on the 1st leaves of untreated plants, infection levels were assessed on a scale of 0 to 100 percent disease severity. Percent disease control was calculated using the ratio of disease severity on treated plants relative to untreated plants. Example F: Evaluation of Fungicidal Activity: Leaf Spot of Sugar Beets (Cercospora beticola; Bayer Code CERCBE) Sugar beet plants (variety HH88) were grown in soil-less Metro mix and trimmed regularly to maintain a uniform plant size prior to test. Plants were inoculated with a spore suspension 24 hr after fungicide treatments. Inoculated plants were kept in a dew chamber at 22° C. for 48 hr then incubated in a greenhouse set at 24° C. under a clear plastic hood with bottom ventilation until disease symptoms were fully expressed. Fungicide formulation, application and disease assessment on the sprayed leaves followed the procedures as described in the Example A.

Phakopsora pachyrhizi = test: Asian soybean rust (PHAKPA) disease control; settings: 25 ppm; for PHAKPA disease control, 1DP: 1 Day Protectant; for PHAKPA disease control, 3DC: 3 Day Curative
Pyricularia oryzae = settings: 100 ppm; 1 Day Protectant; rice
[1] = system: Colletotrichum lagenarium; test: Cucumber anthracnose (COLLLA) disease control; settings: 100 ppm, 1 Day Protectant
Procedure: All fungicides were evaluated using the aforementioned method for their activity vs. all target diseases, unless stated otherwise. Wheat leaf blotch and brown rust activity were also evaluated using track spray applications, in which case the fungicides were formulated as EC formulations, containing 0.1% Trycol 5941 in the spray solutions. Wheat plants (variety Yuma) were grown from seed in a greenhouse in 50% mineral soil/50% soil-less Metro mix until the first leaf was fully emerged, with 7-10 seedlings per pot. These plants were inoculated with an aqueous spore suspension of Zymoseptoria tritici either prior to or after fungicide treatments. After inoculation the plants were kept in 100% relative humidity (one day in a dark dew chamber followed by two to three days in a lighted dew chamber at 20° C.) to permit spores to germinate and infect the leaf. The plants were then transferred to a greenhouse set at 20° C. for disease to develop. When disease symptoms were fully expressed on the 1st leaves of untreated plants, infection levels were assessed on a scale of 0 to 100 percent disease severity. Percent disease control was calculated using the ratio of disease severity on treated plants relative to untreated plants. Example K: Evaluation of Fungicidal Activity: Cucumber Anthracnose (Colletotrichum lagenarium; Bayer Code COLLLA) Cucumber seedlings (variety Bush Pickle) were propagated in soil-less Metro mix, with each pot having one plant, and used in the test when 12 to 14 days old. Test plants were inoculated with an aqueous spore suspension of Colletotrichum lagenarium 24 hr after fungicide treatments. After inoculation the plants were kept in a dew room at 22° C. with 100% relative humidity for 48 hr to permit spores to germinate and infect the leaf. The plants were then transferred to a growth room set at 22° C. for disease to develop. Fungicide formulation, application and disease assessment on the sprayed leaves followed the procedures as described in the Example A.

Structure (SMILES)	LEPTNO disease control, 1DP (Leptosphaeria nodorum)	CERCBE disease control, 1DP (Cercospora beticola)	PHAKPA disease control, 1DP (Phakopsora pachyrhizi)	PHAKPA disease control, 3DC (Phakopsora pachyrhizi)	PYRIOR disease control, 1DP (Pyricularia oryzae)	COLLLA disease control, 1DP [1]
CC[C@@H](CCOC)[C@@H](Oc1ccccc1)[C@H](C)OC(=O)[C@H](C)NC(=O)c1nccc(OC)c1OCOC(C)=O [Cmpd 476]	A (> 80)	B (≤ 80)	A (> 80)	B (≤ 80)	A (> 80)	B (≤ 80)
COc1ccnc(C(=O)N[C@@H](C)C(=O)O[C@@H](C)[C@@H](CC(C)C)Oc2ccccc2)c1OCOC(=O)C(C)C [Cmpd 1101]	B (≤ 80)	A (> 80)	A (> 80)	A (> 80)	B (≤ 80)	A (> 80)
COc1ccnc(C(=O)N[C@@H](C)C(=O)O[C@@H](C)[C@H](Oc2cc(F)cc(Cl)c2)c2ccccc2)c1OC(C)=O [Cmpd 642]	A (> 80)	A (> 80)	B (≤ 80)	B (≤ 80)	A (> 80)	A (> 80)
CCC(C)C(Oc1ccccc1)C(C)OC(=O)C(C)NC(=O)c1nccc(OC)c1OC(C)=O (stereo not drawn) [Cmpd 691]	A (> 80)	B (≤ 80)	A (> 80)	B (≤ 80)	–	A (> 80)
COc1ccnc(C(=O)N[C@@H](C)C(=O)O[C@@H](C)[C@H](Oc2cccc(Cl)c2)c2ccccc2)c1OCOC(C)=O [Cmpd 637]	B (≤ 80)	B (≤ 80)	A (> 80)	B (≤ 80)	B (≤ 80)	B (≤ 80)
COc1ccnc(C(=O)N[C@@H](C)C(=O)O[C@@H](C)[C@H](Oc2ccccc2)C(C)C)c1OCOC(C)=O [Cmpd 475]	A (> 80)	A (> 80)	A (> 80)	A (> 80)	A (> 80)	A (> 80)
COc1ccnc(C(=O)N[C@@H](C)C(=O)O[C@@H](C)[C@H](Oc2ccccc2)C(C)C)c1OC(C)=O [Cmpd 478]	A (> 80)	B (≤ 80)	A (> 80)	B (≤ 80)	A (> 80)	B (≤ 80)
CCC(CC)[C@@H](Oc1ccccc1)[C@H](C)OC(=O)[C@H](C)NC(=O)c1nccc(OC)c1OC(C)=O [Cmpd 479]	A (> 80)	A (> 80)	A (> 80)	B (≤ 80)	A (> 80)	A (> 80)
COc1ccnc(C(=O)N[C@@H](C)C(=O)O[C@@H](C)[C@H](Oc2cccc(F)c2)c2ccccc2)c1OCOC(C)=O [Cmpd 574]	A (> 80)	A (> 80)	A (> 80)	B (≤ 80)	A (> 80)	A (> 80)
CCCOC(CC)C(Oc1ccccc1)C(C)OC(=O)C(C)NC(=O)c1nccc(OC)c1OCOC(C)=O (stereo not drawn) [Cmpd 446]	A (> 80)	B (≤ 80)	A (> 80)	B (≤ 80)	–	B (≤ 80)
COc1ccnc(C(=O)N[C@@H](C)C(=O)O[C@@H](C)[C@H](Oc2ccccc2Cl)c2ccccc2)c1OC(C)=O [Cmpd 640]	A (> 80)	A (> 80)	B (≤ 80)	B (≤ 80)	A (> 80)	A (> 80)
COc1ccnc(C(=O)N[C@@H](C)C(=O)O[C@@H](C)[C@H](Oc2ccccc2)C2CCCC2)c1OCOC(C)=O [Cmpd 556]	A (> 80)	A (> 80)	A (> 80)	B (≤ 80)	A (> 80)	A (> 80)
COc1ccnc(C(=O)N[C@@H](C)C(=O)O[C@@H](C)[C@H](Oc2cc(F)cc(Cl)c2)C(C)C)c1OCOC(C)=O [Cmpd 617]	A (> 80)	B (≤ 80)	A (> 80)	B (≤ 80)	–	A (> 80)
CC[C@@H](CCOC)[C@@H](Oc1ccccc1)[C@H](C)OC(=O)[C@H](C)NC(=O)c1nccc(OC)c1OC(C)=O [Cmpd 482]	A (> 80)	A (> 80)	–	–	A (> 80)	A (> 80)
COc1ccnc(C(=O)N[C@@H](C)C(=O)O[C@@H](C)[C@H](Oc2cccc(Cl)c2)C(C)C)c1OC(C)=O [Cmpd 566]	A (> 80)	B (≤ 80)	A (> 80)	B (≤ 80)	–	A (> 80)
